Assay results reported in patent US11510886B2, “Metformin amino acid compounds and methods of using the same” (Laboratorios Silancs S.A. DE C.V., priority 2016, dated 2022).
Like-named read-outs stand apart in the source and are kept apart here.

Legend:
blood glucose level = assay: Effect of metformin compounds on the glucokinetic profile after oral glucose overload; assay type: in vivo, Rat; settings: for Blood glucose level, 3 h post-glucose overload: *p<0.05, **p<0.01 vs vehicle
[1] = terms of European Pharmacopeia 7.0 section 5.11
[2] = rat, in vivo, po, 250 mg/kg
[3] = for Body weight (g) On administration day / Body weight (g) On distribution day / Body weight (g) On first administration day: Mean ± SD; for Body weight (g) On distribution day: before dosing
[4] = STZ-diabetic male rats, mean ± SD; for Absolute body weight, Day −3 (before STZ administration): baseline before STZ and before first TI/RI administration; for Absolute body weight, Day −1 / Absolute body weight, Day −2 (distribution of groups): before first TI/RI administration
[5] = tested on: rat model of streptozotocin-induced diabetes; assay: Blood glucose levels in rat model of streptozotocin-induced diabetes, 14 days oral; settings: for Blood glucose levels before TI/RI administration, Day −1: STZ-diabetic rats, before first TI/RI administration, n.d. = all values beyond ULOD of glucometer (600 mg/dl), § n=1, ¢ n=2; for Blood glucose levels before TI/RI administration, Day −1 / Blood glucose levels before TI/RI administration, Day −3 (before STZ administration): mean ± SD; for Blood glucose levels before TI/RI administration, Day −3 (before STZ administration): rats, baseline before STZ and before first TI/RI administration
[6] = tested on: rat model of streptozotocin-induced diabetes; settings: about 18 hours after last administration, fasted; Dunnet test
[7] = diabetic rats, 14 days daily oral
GLUT4 = assay: GPBP-1 and GLUT4 distribution in C2C12 cells (FIGS. 77 and 78); assay type: cell-based, Mice
Description: FIG. 77. Effects of no treatment, insulin, SLN1, SLN1 and insulin, SLN10, and SLN10 and insulin on GPBP-1 and GLUT-4 distribution in non-fused C2C12 cells after a 30 minute treatment.
FIG. 78. C2C12 cells that expressed GLUT4-GFP constitutively were incubated with SLN1 or SLN10 10 mM, or with the corresponding vehicle (control), and GLUT4 distribution was analyzed by using immunofluorescence and confocal microscopy.

[8] = tested on: GPBP, LKB1/STRADα/MO25, AMPK, AS160; assay: In vitro phosphorylation of GPBP with LKB1 complex, AMPK and AS160; settings: LKB1 complex without GPBP
C2C12 myotubes = assay: Glucose in C2C12 myotubes cultured with M1 macrophage conditioned medium; assay type: cell-based, Mice; settings: macrophages treated with 10 mM; glucose adjusted to 100 mg/100 mL (FIG. 95)
Description: FIG. 95. C2C12 myotubes, treated with a conditioned RAW264.7 M1 macrophages medium (stimulated with LPS and IFN-γ [M1]), accumulate glucose in the culture medium: SLN compounds reduce the “hyperglycemic” effect of the M1 medium. […]; then, the culture media were collected, and their glucose concentration adjusted to 100 mg/100 mL and used to culture C2C12 myoblasts that had been previously differentiated to myotubes in DMEM supplemented with 2% horse serum for 5 days. The glucose concentration in myotubes was determined at several times with a Glucocard (Arkray). C2C12 myotubes, cultured with conditioned media of non-stimulated (cells) macrophages, or similarly stimulated but not treated with a SLN (M1), were used as controls. The initial glucose levels (time 0) are used as a reference (100%) in each of the series.
[…]. Then the culture media were collected, their glucose concentration adjusted to 100 mg/100 mL and used to culture C2C12 myoblasts that had been previously differentiated to myotubes in DMEM supplemented with 2% horse serum for 5 days. The glucose concentration of the myotube cultures was determined at different times with Glucocard (Arkray). The controls used were the C2C12 cultured with media conditioned with no stimulated macrophages (cells) or with M1 conditioned media. The initial glucose levels (time 0) were used as a reference (100%) in each series.

[9] = rat, 750 mg/kg referred to metformin base, mean ± SD, *p<0.05 vs vehicle
[10] = rat, 750 mg/kg referred to metformin base, mean ± SD
[11] = Groups L-U, 750 mg/kg, first column of this head
[12] = Groups L-U, 750 mg/kg, second column of this head

With CN(C)C(=N)NC(=N)N.NC(=O)C[C@H](N)C(=O)O [Metformin asparaginate, metformin asparaginate] the “blood glucose level vs vehicle, after the oral glucose overload” value (blood glucose level; 750 mg/kg for five days, glucose 3 g/kg, isolated time points 0.25-4 hours, Dunn's test) was “statistically significant decreases”, the “Blood glucose level, 0.25 h post-glucose overload” value (blood glucose level; [9]) was 94.50 ± 24.31 mg/dL and the “Blood glucose level, 0.5 h post-glucose overload” value (blood glucose level; [10]) was 93.75 ± 19.14 mg/dL. For the same compound, the “Blood glucose level, 2 h post-glucose overload” value (blood glucose level; [10]) was 80.00 ± 10.68 mg/dL, the “Blood glucose level, 3 h post-glucose overload” value (blood glucose level; [10]) was 86.50 ± 2.65 mg/dL and the “Blood glucose level, 4 h post-glucose overload” value (blood glucose level; [9]) was 87.00 ± 8.60 mg/dL. For the same compound, the “Blood glucose level, 6 h post-glucose overload” value (blood glucose level; [10]) was 78.50 ± 16.03 mg/dL, the “Blood glucose level, pre-glucose overload” value (blood glucose level; [9]) was 86.50 ± 14.62 mg/dL and the “Physical form (hygroscopicity)” value [1] was “Deliquescent”. The “AUC(0-24)” value [2] was 153.76 µg·h/mL, the “Cmax” value [2] was 16270 ng/mL and the “Metformin base concentration in plasma, 0.5 h post-administration” value [2] was 10.72 ± 2.33 µg/mL. For the same compound, the “Metformin base concentration in plasma, 1 h post-administration” value [2] was 8.40 ± 1.12 µg/mL, the “Metformin base concentration in plasma, 2 h post-administration” value [2] was 9.74 ± 1.24 µg/mL and the “Metformin base concentration in plasma, 4 h post-administration” value [2] was 16.27 ± 2.89 µg/mL. The “Metformin base concentration in plasma, 8 h post-administration” value [2] was 7.56 ± 1.49 µg/mL, the “Metformin base concentration in plasma, 24 h post-administration” value [2] was 0.39 ± 0.13 µg/mL and the “Body weight (g) On administration day” value ([3]; Groups B-K, 250 mg/kg) was 191.98 ± 10.26 g. For the same compound, the “Body weight (g) On distribution day” value ([3]; Groups B-K, 250 mg/kg) was 186.85 ± 11.32 g, the “Body weight (g) On distribution day” value ([3]; Groups L-U, 750 mg/kg) was 188.40 ± 10.50 g and the “Body weight (g) On first administration day” value [3, 11] was 201.60 ± 5.61 g. The “Body weight (g) On first administration day” value [3, 12] was 196.93 ± 10.40 g, the “Absolute body weight, Day −3 (before STZ administration)” value [4] was 233.47 ± 15.23 g and the “Absolute body weight, Day −1” value [4] was 209.73 ± 12.66 g. For the same compound, the “Absolute body weight, Day −2 (distribution of groups)” value [4] was 214.13 ± 12.67 g, the “Blood glucose levels before TI/RI administration, Day −1” value [5] was 573.00^§ ± n.d.^§ mg/dL and the “Blood glucose levels before TI/RI administration, Day −3 (before STZ administration)” value [5] was 116.33 ± 5.51 mg/dL. For the same compound, the “plasma glucose levels at the time of sacrifice” value [6] was “significantly higher”.
With CC(C)[C@H](N)C(=O)O.CN(C)C(=N)NC(=N)N [Metformin valinate, metformin valinate] the “Blood glucose level, 0.25 h post-glucose overload” value (blood glucose level; [9]) was 102.50 ± 12.07 mg/dL, the “Blood glucose level, 0.5 h post-glucose overload” value (blood glucose level; [10]) was 101.00 ± 14.90 mg/dL and the “Blood glucose level, 1 h post-glucose overload” value (blood glucose level; rat, 750 mg/kg referred to metformin base, 1 h post-glucose overload, mean ± SD, *p<0.05 vs vehicle) was 100.25 ± 15.44 mg/dL. The “Blood glucose level, 2 h post-glucose overload” value (blood glucose level; [10]) was 97.00 ± 14.54 mg/dL, the “Blood glucose level, 3 h post-glucose overload” value (blood glucose level; [10]) was 93.50 ± 18.91 mg/dL and the “Blood glucose level, 4 h post-glucose overload” value (blood glucose level; [9]) was 86.50 ± 10.15 mg/dL. For the same compound, the “Blood glucose level, 6 h post-glucose overload” value (blood glucose level; [10]) was 92.75 ± 5.56 mg/dL, the “Blood glucose level, pre-glucose overload” value (blood glucose level; [9]) was 90.25 ± 3.86 mg/dL and the “Physical form (hygroscopicity)” value ([1]; listed as 14. VALINE) was “Hygroscopic solid”. For the same compound, the “Physical form (hygroscopicity)” value ([1]; listed as valine) was “hygroscopic”, the “AUC(0-24)” value [2] was 123.05 µg·h/mL and the “Cmax” value [2] was 13700 ng/mL. The “Metformin base concentration in plasma, 0.5 h post-administration” value [2] was 8.75 ± 0.50 µg/mL, the “Metformin base concentration in plasma, 1 h post-administration” value [2] was 11.56 ± 2.71 µg/mL and the “Metformin base concentration in plasma, 2 h post-administration” value [2] was 12.90 ± 2.38 µg/mL. For the same compound, the “Metformin base concentration in plasma, 4 h post-administration” value [2] was 13.70 ± 2.55 µg/mL, the “Metformin base concentration in plasma, 8 h post-administration” value [2] was 4.79 ± 0.38 µg/mL and the “Metformin base concentration in plasma, 24 h post-administration” value [2] was 0.21 ± 0.09 µg/mL. For the same compound, the macroscopic necropsy findings ([3]; 750 mg/kg for five days) was “small additional lobe”, the “Body weight (g) On administration day” value ([3]; Groups B-K, 250 mg/kg) was 193.85 ± 7.65 g and the “Body weight (g) On distribution day” value ([3]; Groups B-K, 250 mg/kg) was 186.67 ± 11.37 g. The “Body weight (g) On distribution day” value ([3]; Groups L-U, 750 mg/kg) was 190.28 ± 6.26 g, the “Body weight (g) On first administration day” value [3, 11] was 206.48 ± 10.52 g and the “Body weight (g) On first administration day” value [3, 12] was 194.90 ± 4.71 g. For the same compound, the “Absolute body weight, Day −3 (before STZ administration)” value [4] was 233.50 ± 9.71 g, the “Absolute body weight, Day −1” value [4] was 213.90 ± 16.31 g and the “Absolute body weight, Day −2 (distribution of groups)” value [4] was 217.43 ± 14.43 g. For the same compound, the mortality [7] was “found dead on the day 9 of study”, the “Blood glucose levels before TI/RI administration, Day −1” value [5] was 592.00^§ ± n.d.^§ mg/dL and the “blood glucose levels 2 hours after administration on day 2 vs diabetic animals treated with vehicle” value ([5]; diabetic rats, 250 mg/kg as metformin base) was “significantly lower blood glucose levels”. The “Blood glucose levels before TI/RI administration, Day −3 (before STZ administration)” value [5] was 120.00 ± 1.73 mg/dL and the “plasma glucose levels at the time of sacrifice” value [6] was “significantly higher”.
With CN(C)C(=N)N=C(N)N [metformin, 3-(diaminomethylidene)-1,1-Dimethylguanidine] the GLUT4 distribution (GLUT4) was “levels lower than insulin” and the “LKB1 autophosphorylation and STRADα phosphorylation” value [8] was “trigger a discrete LKB1 autophosphorylation”.
For Metformin glycinate, the GLUT4 distribution (GLUT4) was “very intense accumulation of GLUT4 in the perinuclear region and in the plasma membrane” and the “glucose concentration in myotubes kept in M1 macrophage-conditioned medium” value (C2C12 myotubes) was “kept values at “normoglycemic” levels”.
For “insulin: insulin, comparator for GLUT4 distribution”, the GLUT4 distribution (GLUT4) was “GLUT4 distribution to the cell membrane increased”.
